# Laboratory results from patent US8309606B2, “Compounds for use in the treatment of autoimmune diseases, immuno-allergical diseases and organ or tissue transplantation rejection” (Novaremed Limited, priority 2002, dated 2012).
# Test system: spleen cells±ConA
# Test: Proliferation responses of splenocytes ±Con A, [3H]thymidine incorporation
# Type: cell-based, mice
# Conditions: for Con A1 / Con A2 / No Con A: incorporated radioactivity
# Protocol: Spleen cells obtained from native or concanavalin A (Con A)-treated mice were examined in-vitro for their response to T-cell-dependent mitogens. Cells were plated in quadruplicate in 96-well, flat-bottom, microtiter plates (4×10^5 cells/0.2 ml/well) in RPMI-1640 medium supplemented with 5% heat inactivated FCS, 2 mM L-glutamine, 100 U/ml penicillin, […] streptomycin and various concentrations of compound 10 ([…]). All plates were incubated for 48 h in humidified atmosphere of 5% CO2 in air at 37° C., and then pulsed for 18 h with […] ^3[H] thymidine. Cells from each microculture were harvested on fiberglass filters using a multiharvester, and incorporated radioactivity was measured using standard scintillation techniques.
structure (smiles),measurement,setting,value
CC(CO)COCC(C)OCC(C)OCC(C)OCC(C)OCC(C)OCC(C)OCC(C)OCC(C)OCC(C)OCC(C)OCC(C)OCC(C)OCC(C)OCC(C)OCC(C)OCC(C)OCC(Cc1ccccc1)NC(=O)CCc1ccc(O)cc1 (stereo not shown) [Compound 10],Con A1,100 pg/ml,1280
same,Con A2,100 pg/ml,3481
same,No Con A,100 pg/ml,271
same,Con A1,1 ng/ml,733
same,Con A2,1 ng/ml,3609
same,No Con A,1 ng/ml,284
same,Con A1,100 ng/ml,880
same,Con A2,100 ng/ml,2489
same,No Con A,100 ng/ml,274
same,Con A1,1 μg/ml,986
same,Con A2,1 μg/ml,2156
same,No Con A,1 μg/ml,333
same,Con A1,100 μg/ml,598
same,Con A2,100 μg/ml,1380
same,No Con A,100 μg/ml,170
same,effect on the proliferation of the splenocytes,incubation with compound (Table 1),significant inhibition
